Reference: patent US12371428B2 (Exelixis, Inc., priority 2019, dated 2025)

Tests used:
[1] = target: Human KDR (residues K790-V1356) (Homo sapiens (Human), UniProt P35968); assay: Human KDR kinase assay, 33P-phosphoryl transfer radiometric (Example B-1, KinaseProfiler); type: biochemical; details: protocol of Example B-1 (compounds 21-27, 41-47, 99, 104)
Procedure: (§1) Kinase activity and compound inhibition were investigated using the ^33P-Phosphoryl transfer radiometric kinase assay, performed using the KinaseProfiler™ service of Eurofins Pharma Discovery Services UK Limited. Dose-response experiments were performed using nine compound concentrations in a 96-well microtiter plate. For each assay, all compounds were prepared to a 50× final assay concentration (50 μM) in 100% DMSO, then diluted in a half-log series, with the final top concentration at 1 μM. This working stock of the compound was added to the assay well as the first component in the reaction, followed by the remaining components as detailed in the following assay protocols below. The positive control wells (100% kinase activity) contain all components of the reaction including 2% DMSO (control for solvent effects), except the compound of interest. Blank wells contain all components of the reaction, with the reference inhibitor, staurosporine. This reference compound was used to abolish kinase activity and generated the 0% kinase activity base-line. IC50 values were calculated by nonlinear regression analysis using the sigmoidal dose-response (variable slope) curve fit on XLFit version 5.3 (ID Business Solutions).
(§2) Example B-1: Human KDR (residues K790-V1356, 55 nM) was incubated with 8 mM MOPS pH 7.0, 0.2 mM EDTA, 0.33 mg/mL myelin basic protein, 10 mM magnesium acetate, and 10 μM [γ-^33P-ATP]. The reaction was initiated by the addition of the Mg/ATP mix. After incubation for 40 minutes at room temperature, the reaction was stopped by the addition of phosphoric acid to a concentration of 0.5%. A reaction aliquot of 10 μL was then spotted onto a P30 filtermat and washed four times for 4 minutes in 0.425% phosphoric acid and once in methanol prior to drying and scintillation counting. Incorporated ^33P was measured using the Wallac Microbeta scintillation counter (Perkin Elmer).

[2] = target: Human Met (residues R974-S1390 with A1209G and V1290L) (Homo sapiens, UniProt P08581); assay: Human Met kinase assay, 33P-phosphoryl transfer radiometric (Example D-1, KinaseProfiler); type: biochemical; details: protocol of Example D-1 (compounds 21-27, 41-47, 99, 104); read-out: c-Met IC50
Procedure: as §1
as §2, with “D-1:” for “B-1:”, “Met” for “KDR”, “R974-S1390 with A1209G and V1290L, 3.4” for “K790-V1356, 55”, “250 µM […] (SEQ ID NO:3), 1 mM sodium orthovanadate, 5 mM […],” for “0.33 mg/mL myelin basic protein,”

[3] = target: Human AXL (residues 464-885) (Homo sapiens (Human), UniProt P30530); assay: Human AXL kinase assay, HTRF KinEase (Example A-2); type: biochemical
Procedure: Kinase activity and compound inhibition were also investigated using the HTRF® KinEase assay (Cisbio Cat #62TKOPEB) per manufacturer's instructions. In short, compounds were delivered in 300 nL volumes at 10 different concentrations in DMSO (3% final) to empty 384-well assay plates (Corning cat #3824). A mixture of enzyme, […] biotynlated peptide substrate, and buffer in 10 μL volume was added. The assay was started upon the addition of ATP (at Km). The 10 μL reaction was incubated at room temperature. The reaction was stopped upon the addition of detection buffer containing streptavidin-XL665 ([…]) and TK antibody-Eu3+(5 L).
Kinase activity normalized to DMSO (100% activity) and reference compound at […] and (0% activity) was calculated using the fluorescence ratio […]. IC50 values were calculated by nonlinear regression analysis using a 4-parameter logistic curve fit in ActivityBase XE (IDBS).
The mixture was added to the pre-plated compounds. […] The reaction was incubated at room temperature for 50 min and stopped upon the addition of SA-XL665 and TK-antibody both diluted in EDTA-containing kinase detection buffer (Cisbio). The kinase activity was calculated as stated above and the IC50 values were reported.

[4] = target: AXL (phospho-AXL, Gas6-stimulated A-172 glioblastoma cells) (Homo sapiens (Human), UniProt P30530); assay: AXL autophosphorylation ELISA in A-172 cells (Example E); type: cell-based; details: cellular activity; AXL autophosphorylation ELISA in A-172 cells; read-out: Axl IC50
How it was run: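 Phospho-AXL was measured by ELISA in lysates of Gas6-stimulated A-172 cells, starved 24 h in serum-free medium and exposed 1 h to an 8-point compound dilution at 0.3% DMSO.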

Sequence of Human AXL (residues 464-885) (P30530 473-894): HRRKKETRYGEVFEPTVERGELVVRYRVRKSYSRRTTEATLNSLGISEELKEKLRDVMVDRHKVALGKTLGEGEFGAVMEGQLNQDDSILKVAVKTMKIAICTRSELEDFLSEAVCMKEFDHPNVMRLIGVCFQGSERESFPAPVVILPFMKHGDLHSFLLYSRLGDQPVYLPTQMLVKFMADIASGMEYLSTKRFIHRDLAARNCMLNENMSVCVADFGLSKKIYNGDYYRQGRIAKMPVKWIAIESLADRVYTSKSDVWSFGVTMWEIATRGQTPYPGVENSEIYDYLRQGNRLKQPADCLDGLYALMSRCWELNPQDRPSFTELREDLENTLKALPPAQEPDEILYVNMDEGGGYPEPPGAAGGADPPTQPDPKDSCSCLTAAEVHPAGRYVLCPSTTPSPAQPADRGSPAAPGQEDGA
Sequence of AXL (phospho-AXL, Gas6-stimulated A-172 glioblastoma cells) (P30530 26-894): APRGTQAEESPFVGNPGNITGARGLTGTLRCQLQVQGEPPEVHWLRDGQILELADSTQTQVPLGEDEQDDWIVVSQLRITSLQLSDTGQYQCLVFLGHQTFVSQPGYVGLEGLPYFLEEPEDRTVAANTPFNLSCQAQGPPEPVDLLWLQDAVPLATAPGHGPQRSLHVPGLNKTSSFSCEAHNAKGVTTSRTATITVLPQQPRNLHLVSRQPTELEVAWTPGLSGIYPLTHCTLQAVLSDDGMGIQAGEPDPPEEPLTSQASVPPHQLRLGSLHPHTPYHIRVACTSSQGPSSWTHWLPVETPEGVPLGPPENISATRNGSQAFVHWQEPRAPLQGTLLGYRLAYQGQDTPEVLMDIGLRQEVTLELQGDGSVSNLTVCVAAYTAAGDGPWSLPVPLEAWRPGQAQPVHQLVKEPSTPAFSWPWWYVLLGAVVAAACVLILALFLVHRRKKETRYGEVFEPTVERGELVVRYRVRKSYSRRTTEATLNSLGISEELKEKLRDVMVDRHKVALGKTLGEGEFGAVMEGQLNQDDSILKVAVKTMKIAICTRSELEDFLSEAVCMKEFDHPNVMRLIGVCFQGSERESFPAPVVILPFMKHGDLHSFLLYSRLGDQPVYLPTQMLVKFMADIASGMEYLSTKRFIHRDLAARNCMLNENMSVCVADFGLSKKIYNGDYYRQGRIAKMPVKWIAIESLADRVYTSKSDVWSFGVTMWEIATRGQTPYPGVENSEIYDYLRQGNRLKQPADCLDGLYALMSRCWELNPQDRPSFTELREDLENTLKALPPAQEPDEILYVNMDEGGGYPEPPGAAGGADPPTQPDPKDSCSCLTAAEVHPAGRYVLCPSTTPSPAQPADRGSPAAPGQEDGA
Sequence of Human KDR (residues K790-V1356) (P35968 790-1356): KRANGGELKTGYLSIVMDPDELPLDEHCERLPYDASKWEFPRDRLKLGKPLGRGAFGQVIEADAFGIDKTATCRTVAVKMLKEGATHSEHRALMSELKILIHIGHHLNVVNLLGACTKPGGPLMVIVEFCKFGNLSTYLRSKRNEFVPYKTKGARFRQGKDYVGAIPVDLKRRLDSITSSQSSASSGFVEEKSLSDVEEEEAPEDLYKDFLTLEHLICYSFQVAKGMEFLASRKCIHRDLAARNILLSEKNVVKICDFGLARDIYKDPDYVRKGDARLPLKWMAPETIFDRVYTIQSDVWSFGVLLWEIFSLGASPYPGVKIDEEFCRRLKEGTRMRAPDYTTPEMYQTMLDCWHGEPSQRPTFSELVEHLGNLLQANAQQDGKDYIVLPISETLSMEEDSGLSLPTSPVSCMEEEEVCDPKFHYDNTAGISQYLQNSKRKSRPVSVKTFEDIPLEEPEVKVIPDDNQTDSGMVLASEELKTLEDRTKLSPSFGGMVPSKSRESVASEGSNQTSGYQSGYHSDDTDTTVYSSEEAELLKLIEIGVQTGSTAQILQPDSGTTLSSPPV
Sequence of Human Met (residues R974-S1390 with A1209G and V1290L) (P08581 25-1390 limits assumed, stated change not applied): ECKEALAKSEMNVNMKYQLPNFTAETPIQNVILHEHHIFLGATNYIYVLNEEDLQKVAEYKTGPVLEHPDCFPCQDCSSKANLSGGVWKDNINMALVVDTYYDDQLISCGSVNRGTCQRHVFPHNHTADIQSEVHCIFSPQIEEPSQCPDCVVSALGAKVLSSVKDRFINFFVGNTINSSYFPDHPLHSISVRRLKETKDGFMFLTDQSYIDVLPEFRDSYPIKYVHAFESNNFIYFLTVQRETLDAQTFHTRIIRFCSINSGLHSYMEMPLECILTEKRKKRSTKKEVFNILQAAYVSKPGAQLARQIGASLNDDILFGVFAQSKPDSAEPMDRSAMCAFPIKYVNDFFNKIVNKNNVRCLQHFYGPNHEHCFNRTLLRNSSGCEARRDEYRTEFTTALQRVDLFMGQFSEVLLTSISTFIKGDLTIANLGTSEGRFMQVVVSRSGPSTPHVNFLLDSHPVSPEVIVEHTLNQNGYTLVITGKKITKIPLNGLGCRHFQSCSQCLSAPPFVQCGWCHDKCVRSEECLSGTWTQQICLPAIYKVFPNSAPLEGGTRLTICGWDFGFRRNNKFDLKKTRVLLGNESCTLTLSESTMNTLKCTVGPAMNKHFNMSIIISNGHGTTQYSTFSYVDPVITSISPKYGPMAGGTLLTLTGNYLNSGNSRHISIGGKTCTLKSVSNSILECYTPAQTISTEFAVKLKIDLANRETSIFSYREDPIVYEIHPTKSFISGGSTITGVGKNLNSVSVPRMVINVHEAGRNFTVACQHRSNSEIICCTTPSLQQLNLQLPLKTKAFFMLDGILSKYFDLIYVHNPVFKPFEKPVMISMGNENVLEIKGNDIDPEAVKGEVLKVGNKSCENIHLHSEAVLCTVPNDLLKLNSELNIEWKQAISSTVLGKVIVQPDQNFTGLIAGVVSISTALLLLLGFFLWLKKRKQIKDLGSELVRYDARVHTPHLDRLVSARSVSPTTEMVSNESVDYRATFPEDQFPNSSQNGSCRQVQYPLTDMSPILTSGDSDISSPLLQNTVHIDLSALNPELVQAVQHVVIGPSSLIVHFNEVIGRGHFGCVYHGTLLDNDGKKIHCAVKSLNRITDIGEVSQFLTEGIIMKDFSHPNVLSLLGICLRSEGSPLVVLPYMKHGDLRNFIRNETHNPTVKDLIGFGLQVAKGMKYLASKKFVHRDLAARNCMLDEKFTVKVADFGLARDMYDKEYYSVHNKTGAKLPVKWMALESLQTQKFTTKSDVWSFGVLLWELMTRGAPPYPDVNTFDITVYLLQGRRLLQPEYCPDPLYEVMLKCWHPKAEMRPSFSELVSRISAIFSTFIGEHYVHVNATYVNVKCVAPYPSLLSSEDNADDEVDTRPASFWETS

Compound | IC50 [1] [nM] | IC50 [2] [nM] | IC50 ([3]; protocol of Example A-2) [nM] | IC50 [4] [nM] | IC50 ([3]; protocol of Example A-2 (other compounds)) [nM]
CNc1nccc2c(Oc3ccc(NC(=O)c4cnc(C)n(-c5ccc(F)cc5)c4=O)cc3)ccnc12 [Compound 543, 1-(4-fluorophenyl)-2-methyl-N-[4-[[8-(methylamino)-1,7-naphthyridin-4-yl)oxy]phenyl]-6-oxopyrimidine-5-carboxamide] |  |  | < 100 | < 100 | 
C=C(C)c1cnc2c(Oc3ccc(NC(=O)c4c(C)cc(C)n(-c5ccc(F)cc5)c4=O)cc3F)ccnc2c1 [Compound 457, 1-(4-fluorophenyl)-N-[3-fluoro-4-[(7-prop-1-en-2-yl-1,5-naphthyridin-4-yl)oxy]phenyl]-4,6-dimethyl-2-oxopyridine-3-carboxamide] |  |  | < 100 | < 100 | 
COc1cnc2c(Oc3ccc(NC(=O)c4cn(C)c(C)c(-c5ccc(F)cc5C)c4=O)cc3)ccnc2c1 [Compound 187, 5-(4-Fluoro-2-methylphenyl)-N-[4-[(7-methoxy-1,5-naphthyridin-4-yl)oxy]phenyl]-1,6-dimethyl-4-oxopyridine-3-carboxamide] |  |  |  | < 100 | < 100
COc1cc2nccc(Oc3ccc(NC(=O)c4cn(C(C)C)c(C)c(-c5ccc(F)c(Cl)c5)c4=O)cc3F)c2nc1OC [Compound 24, 5-(3-Chloro-4-fluorophenyl)-N-[4-[(6,7-dimethoxy-1,5-naphthyridin-4-yl)oxy]-3-fluorophenyl]-6-methyl-4-oxo-1-propan-2-ylpyridine-3-carboxamide] | < 100 | < 100 |  |  | 
COc1cc2nccc(Oc3ccc(NC(=O)c4cnc(SC(C)C)n(-c5ccc(F)cc5)c4=O)cc3)c2cc1OC [Compound 539, N-[4-(6,7-dimethoxyquinolin-4-yl)oxyphenyl]-1-(4-fluorophenyl)-6-oxo-2-propan-2-ylsulfanylpyrimidine-5-carboxamide] |  |  |  | < 100 | 
COc1cc2nccc(Oc3ccc(NC(=O)c4cn(C(C)C)cc(-c5ccc(F)cc5)c4=O)cc3F)c2nc1OC [Compound 44, N-[4-[(6,7-Dimethoxy-1,5-naphthyridin-4-yl)oxy]-3-fluorophenyl]-5-(4-fluorophenyl)-4-oxo-1-propan-2-ylpyridine-3-carboxamide] | < 100 | < 100 |  |  | 
COc1cc2nccc(Oc3ccc(NC(=O)c4cn(C5COC5)cc(-c5ccc(F)cc5)c4=O)cc3F)c2nc1OC [Compound 47, N-[4-[(6,7-Dimethoxy-1,5-naphthyridin-4-yl)oxy]-3-fluorophenyl]-5-(4-fluorophenyl)-1-(oxetan-3-yl)-4-oxopyridine-3-carboxamide] | < 100 | < 100 |  |  | 
COc1cc2nccc(Oc3ccc(NC(=O)c4cn(C)cc(-c5ccc(F)cc5)c4=O)cc3F)c2nc1OC [Compound 45, N-[4-[(6,7-Dimethoxy-1,5-naphthyridin-4-yl)oxy]-3-fluorophenyl]-5-(4-fluorophenyl)-1-methyl-4-oxopyridine-3-carboxamide] | < 100 | < 100 |  |  | 
COc1cc2nccc(Oc3ccc(NC(=O)c4cn(C(C)C)cc(-c5ccc(F)cc5)c4=O)cc3F)c2cc1OC [Compound 43, N-[4-(6,7-Dimethoxyquinolin-4-yl)oxy-3-fluorophenyl]-5-(4-fluorophenyl)-4-oxo-1-propan-2-ylpyridine-3-carboxamide] | < 100 | < 100 |  |  | 

Next, values leading:

IC50 [1] [nM] | IC50 [2] [nM] | IC50 ([3]; protocol of Example A-2) [nM] | IC50 [4] [nM] | IC50 ([3]; protocol of Example A-2 (other compounds)) [nM] | Compound
< 100 | < 100 |  |  |  | COc1cc2nccc(Oc3ccc(NC(=O)c4cn(C5CCCC5)cc(-c5ccc(F)cc5)c4=O)cc3F)c2nc1OC [Compound 46, 1-Cyclopentyl-N-[4-[(6,7-dimethoxy-1,5-naphthyridin-4-yl)oxy]-3-fluorophenyl]-5-(4-fluorophenyl)-4-oxopyridine-3-carboxamide]
< 100 | < 100 |  |  |  | COc1cc2nccc(Oc3ccc(NC(=O)c4cn(C(C)C)c(C)c(-c5ccc(Cl)c(Cl)c5)c4=O)cc3F)c2nc1OC [Compound 25, 5-(3,4-Dichlorophenyl)-N-[4-[(6,7-dimethoxy-1,5-naphthyridin-4-yl)oxy]-3-fluorophenyl]-6-methyl-4-oxo-1-propan-2-ylpyridine-3-carboxamide]
< 100 | < 100 |  |  |  | COc1cc2nccc(Oc3ccc(NC(=O)c4cn(C5CCCC5)c(C)c(-c5ccc(F)cc5)c4=O)cc3F)c2nc1OC [Compound 26]
< 100 | < 100 |  |  |  | COc1cc2nccc(Oc3ccc(NC(=O)c4cn(C(C)C)c(C)c(-c5ccc(F)cc5)c4=O)cc3F)c2nc1OC [Compound 21, N-[4-[(6,7-Dimethoxy-1,5-naphthyridin-4-yl)oxy]-3-fluorophenyl]-5-(4-fluorophenyl)-6-methyl-4-oxo-1-propan-2-ylpyridine-3-carboxamide]
< 100 | < 100 |  |  |  | COc1cc2nccc(Oc3ccc(NC(=O)c4cn(C5CCCC5)c(C)c(-c5ccc(F)c(Cl)c5)c4=O)cc3F)c2nc1OC [Compound 27, 5-(3-Chloro-4-fluorophenyl)-1-cyclopentyl-N-[4-[(6,7-dimethoxy-1,5-naphthyridin-4-yl)oxy]-3-fluorophenyl]-6-methyl-4-oxopyridine-3-carboxamide]
< 100 | < 100 |  |  |  | COc1cc2nccc(Oc3ccc(NC(=O)c4cn(C(C)C)c(C)c(-c5ccc(Cl)c(Cl)c5)c4=O)cc3F)c2cc1OC [Compound 23, 5-(3,4-Dichlorophenyl)-N-[4-(6,7-dimethoxyquinolin-4-yl)oxy-3-fluorophenyl]-6-methyl-4-oxo-1-propan-2-ylpyridine-3-carboxamide]
< 100 | < 100 |  |  |  | COc1cc2nccc(Oc3ccc(NC(=O)c4cncc(-c5ccc(F)cc5)c4O)cc3F)c2nc1OC [Compound 42, N-[4-[(6,7-Dimethoxy-1,5-naphthyridin-4-yl)oxy]-3-fluorophenyl]-5-(4-fluorophenyl)-4-hydroxypyridine-3-carboxamide]
< 100 | < 100 |  |  |  | COc1cc2nccc(Oc3ccc(NC(=O)c4cn(C5CC5)cc(-c5ccc(F)cc5)c4=O)cc3F)c2nc1OC [Compound 41, 1-Cyclopropyl-N-[4-[(6,7-dimethoxy-1,5-naphthyridin-4-yl)oxy]-3-fluorophenyl]-5-(4-fluorophenyl)-4-oxopyridine-3-carboxamide]
< 100 | < 100 |  |  |  | COc1cc2nccc(Oc3ccc(NC(=O)c4cn(C(C)C)c(C)c(-c5ccc(F)cc5)c4=O)cc3F)c2cc1OC [Compound 22, N-[4-(6,7-Dimethoxyquinolin-4-yl)oxy-3-fluorophenyl]-5-(4-fluorophenyl)-6-methyl-4-oxo-1-propan-2-ylpyridine-3-carboxamide]
< 100 | < 100 |  |  |  | CNc1ncc(C(=O)Nc2ccc(Oc3ccnc4cc(OC)c(OC)nc34)c(F)c2)c(=O)n1-c1ccc(F)cc1 [Compound 99, N-[4-[(6,7-Dimethoxy-1,5-naphthyridin-4-yl)oxy]-3-fluorophenyl]-1-(4-fluorophenyl)-2-(methylamino)-6-oxopyrimidine-5-carboxamide]
